Data as given in PubChem BioAssay (NCI).
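These data come from cells grown in 96-well plates and exposed to compound for 48 hours at five concentrations. Abbreviation: GI50, concentration required for 50% inhibition of growth. TGI: total growth inhibition.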

Tests used:
Test in all cases: growth of human tumour cells (NCI), 48 h
UACC-62 melanoma = test system: UACC-62 melanoma
COLO 205 colon = test system: COLO 205 colon
ACHN renal = test system: ACHN renal
MCF7 breast = test system: MCF7 breast
SNB-75 CNS = test system: SNB-75 CNS
NCI/ADR-RES ovarian = test system: NCI/ADR-RES ovarian
SNB-19 CNS = test system: SNB-19 CNS
SF-295 CNS = test system: SF-295 CNS
OVCAR-3 ovarian = test system: OVCAR-3 ovarian
M14 melanoma = test system: M14 melanoma
UACC-257 melanoma = test system: UACC-257 melanoma
SF-539 CNS = test system: SF-539 CNS
786-0 renal = test system: 786-0 renal
HCT-116 colon = test system: HCT-116 colon
MALME-3M melanoma = test system: MALME-3M melanoma
OVCAR-5 ovarian = test system: OVCAR-5 ovarian
NCI-H460 lung = test system: NCI-H460 lung
HCC-2998 colon = test system: HCC-2998 colon
SF-268 CNS = test system: SF-268 CNS
CAKI-1 renal = test system: CAKI-1 renal
SN12C renal = test system: SN12C renal
HOP-62 NSCLC = test system: HOP-62 NSCLC
MOLT-4 leukemia = test system: MOLT-4 leukemia
KM12 colon = test system: KM12 colon
SR leukemia = test system: SR leukemia
HS 578T breast = test system: HS 578T breast
U251 CNS = test system: U251 CNS
HCT-15 colon = test system: HCT-15 colon
MDA-MB-231 breast = test system: MDA-MB-231 breast
SK-MEL-5 melanoma = test system: SK-MEL-5 melanoma
RPMI-8226 leukemia = test system: RPMI-8226 leukemia
SK-MEL-2 melanoma = test system: SK-MEL-2 melanoma
NCI-H23 lung = test system: NCI-H23 lung
OVCAR-8 ovarian = test system: OVCAR-8 ovarian
IGROV1 ovarian = test system: IGROV1 ovarian
LOX IMVI melanoma = test system: LOX IMVI melanoma
SW-620 colon = test system: SW-620 colon
MDA-MB-435 = test system: MDA-MB-435
A498 renal = test system: A498 renal
PC-3 prostate = test system: PC-3 prostate
OVCAR-4 ovarian = test system: OVCAR-4 ovarian
HT29 colon = test system: HT29 colon
CCRF-CEM leukemia = test system: CCRF-CEM leukemia
EKVX NSCLC = test system: EKVX NSCLC
NCI-H522 lung = test system: NCI-H522 lung
HOP-92 NSCLC = test system: HOP-92 NSCLC
SK-OV-3 ovarian = test system: SK-OV-3 ovarian
NCI-H226 lung = test system: NCI-H226 lung
RXF 393 renal = test system: RXF 393 renal
SK-MEL-28 melanoma = test system: SK-MEL-28 melanoma
TK-10 renal = test system: TK-10 renal
T-47D breast = test system: T-47D breast
DU-145 prostate = test system: DU-145 prostate
K-562 leukemia = test system: K-562 leukemia
HL-60(TB) leukemia = test system: HL-60(TB) leukemia
A549 NSCLC = test system: A549 NSCLC
UO-31 renal = test system: UO-31 renal

SMILES: Fc1c(F)c(F)c2c(c1F)CSc1nc3ccccc3n1-2
- TGI (UACC-62 melanoma): > 100 µM
- TGI (COLO 205 colon): > 100 µM
- TGI (ACHN renal): > 100 µM
- TGI (MCF7 breast): > 100 µM
- TGI (SNB-75 CNS): > 100 µM
- TGI (NCI/ADR-RES ovarian): > 100 µM
- TGI (SNB-19 CNS): > 100 µM
- TGI (SF-295 CNS): > 100 µM
- TGI (OVCAR-3 ovarian): > 100 µM
- TGI (M14 melanoma): > 100 µM
- TGI (UACC-257 melanoma): > 100 µM
- TGI (SF-539 CNS): > 100 µM
- TGI (786-0 renal): > 100 µM
- TGI (HCT-116 colon): > 100 µM
- TGI (MALME-3M melanoma): > 100 µM
- TGI (OVCAR-5 ovarian): > 100 µM
- TGI (NCI-H460 lung): > 100 µM
- TGI (HCC-2998 colon): > 100 µM
- TGI (SF-268 CNS): > 100 µM
- TGI (CAKI-1 renal): > 100 µM
- TGI (SN12C renal): > 100 µM
- TGI (HOP-62 NSCLC): > 100 µM
- TGI (MOLT-4 leukemia): > 100 µM
- TGI (KM12 colon): > 100 µM
- TGI (SR leukemia): > 100 µM
- TGI (HS 578T breast): > 100 µM
- TGI (U251 CNS): > 100 µM
- TGI (HCT-15 colon): > 100 µM
- TGI (MDA-MB-231 breast): > 100 µM
- TGI (SK-MEL-5 melanoma): > 100 µM
- TGI (RPMI-8226 leukemia): > 100 µM
- TGI (SK-MEL-2 melanoma): > 100 µM
- TGI (NCI-H23 lung): > 100 µM
- TGI (OVCAR-8 ovarian): > 100 µM
- TGI (IGROV1 ovarian): > 100 µM
- TGI (LOX IMVI melanoma): > 100 µM
- TGI (SW-620 colon): > 100 µM
- TGI (MDA-MB-435): > 100 µM
- TGI (A498 renal): > 100 µM
- TGI (PC-3 prostate): > 100 µM
- TGI (OVCAR-4 ovarian): > 100 µM
- TGI (HT29 colon): > 100 µM
- TGI (CCRF-CEM leukemia): > 100 µM
- TGI (EKVX NSCLC): > 100 µM
- TGI (NCI-H522 lung): > 100 µM
- TGI (HOP-92 NSCLC): > 100 µM
- TGI (SK-OV-3 ovarian): > 100 µM
- TGI (NCI-H226 lung): > 100 µM
- TGI (RXF 393 renal): > 100 µM
- TGI (SK-MEL-28 melanoma): > 100 µM
- TGI (TK-10 renal): > 100 µM
- TGI (T-47D breast): > 100 µM
- TGI (DU-145 prostate): > 100 µM
- TGI (K-562 leukemia): > 100 µM
- TGI (HL-60(TB) leukemia): > 100 µM
- TGI (A549 NSCLC): > 100 µM

SMILES: O=C(Nc1ccc(-n2cc(-c3ccncc3)c(-c3ccc(O)c(Cl)c3)n2)cc1)c1cc(C(F)(F)F)cc(C(F)(F)F)c1
- GI50 (UACC-62 melanoma): 5.35 µM
- TGI (UACC-62 melanoma): 12.9 µM
- GI50 (COLO 205 colon): 10.8 µM
- TGI (COLO 205 colon): > 25 µM
- GI50 (ACHN renal): 8.41 µM
- TGI (ACHN renal): > 25 µM
- GI50 (MCF7 breast): 8.46 µM
- TGI (MCF7 breast): > 25 µM
- GI50 (SNB-75 CNS): 3.73 µM
- TGI (SNB-75 CNS): > 25 µM
- GI50 (NCI/ADR-RES ovarian): 11.1 µM
- TGI (NCI/ADR-RES ovarian): > 25 µM
- GI50 (SNB-19 CNS): 11.9 µM
- TGI (SNB-19 CNS): > 25 µM
- GI50 (SF-295 CNS): 4.71 µM
- TGI (SF-295 CNS): 15 µM
- GI50 (OVCAR-3 ovarian): 7.42 µM
- TGI (OVCAR-3 ovarian): > 25 µM
- GI50 (M14 melanoma): 3.58 µM
- TGI (M14 melanoma): 9.58 µM
- GI50 (UACC-257 melanoma): 14.7 µM
- TGI (UACC-257 melanoma): > 25 µM
- GI50 (SF-539 CNS): 3.57 µM
- TGI (SF-539 CNS): 12.9 µM
- GI50 (HCT-116 colon): 6.24 µM
- TGI (HCT-116 colon): > 25 µM
- GI50 (MALME-3M melanoma): 4.66 µM
- TGI (MALME-3M melanoma): 16.7 µM
- GI50 (OVCAR-5 ovarian): 9.18 µM
- TGI (OVCAR-5 ovarian): > 25 µM
- GI50 (UO-31 renal): 5.3 µM
- TGI (UO-31 renal): > 25 µM
- GI50 (NCI-H460 lung): 7.23 µM
- TGI (NCI-H460 lung): > 25 µM
- GI50 (HCC-2998 colon): 9.89 µM
- TGI (HCC-2998 colon): > 25 µM
- GI50 (SF-268 CNS): 9.33 µM
- TGI (SF-268 CNS): > 25 µM
- GI50 (CAKI-1 renal): 6.57 µM
- TGI (CAKI-1 renal): > 25 µM
- GI50 (SN12C renal): 8.93 µM
- TGI (SN12C renal): > 25 µM
- GI50 (HOP-62 NSCLC): 12.5 µM
- TGI (HOP-62 NSCLC): > 25 µM
- GI50 (MOLT-4 leukemia): 3.89 µM
- TGI (MOLT-4 leukemia): 15.5 µM
- GI50 (KM12 colon): 7.85 µM
- TGI (KM12 colon): > 25 µM
- GI50 (SR leukemia): 8.79 µM
- TGI (SR leukemia): > 25 µM
- GI50 (HS 578T breast): 6.1 µM
- TGI (HS 578T breast): > 25 µM
- GI50 (U251 CNS): 4.55 µM
- TGI (U251 CNS): > 25 µM
- GI50 (HCT-15 colon): 4.84 µM
- TGI (HCT-15 colon): 15.5 µM
- GI50 (MDA-MB-231 breast): 2.92 µM
- TGI (MDA-MB-231 breast): 6.8 µM
- GI50 (SK-MEL-5 melanoma): 5.68 µM
- TGI (SK-MEL-5 melanoma): 19 µM
- GI50 (RPMI-8226 leukemia): 2.34 µM
- TGI (RPMI-8226 leukemia): 13.5 µM
- GI50 (SK-MEL-2 melanoma): 5.08 µM
- TGI (SK-MEL-2 melanoma): 12.7 µM
- GI50 (NCI-H23 lung): 9.8 µM
- TGI (NCI-H23 lung): > 25 µM
- GI50 (OVCAR-8 ovarian): 11.8 µM
- TGI (OVCAR-8 ovarian): > 25 µM
- GI50 (IGROV1 ovarian): 12.7 µM
- TGI (IGROV1 ovarian): > 25 µM
- GI50 (LOX IMVI melanoma): 5.59 µM
- TGI (LOX IMVI melanoma): > 25 µM
- GI50 (SW-620 colon): 11.1 µM
- TGI (SW-620 colon): > 25 µM
- GI50 (MDA-MB-435): 5.79 µM
- TGI (MDA-MB-435): > 25 µM
- GI50 (A498 renal): 14.1 µM
- TGI (A498 renal): > 25 µM
- GI50 (PC-3 prostate): 5.02 µM
- TGI (PC-3 prostate): > 25 µM
- GI50 (OVCAR-4 ovarian): 8.12 µM
- TGI (OVCAR-4 ovarian): > 25 µM
- GI50 (HT29 colon): 5.01 µM
- TGI (HT29 colon): 13.4 µM
- GI50 (CCRF-CEM leukemia): 4.09 µM
- TGI (CCRF-CEM leukemia): 21.8 µM
- GI50 (EKVX NSCLC): 11.1 µM
- TGI (EKVX NSCLC): > 25 µM
- GI50 (NCI-H522 lung): 4.6 µM
- TGI (NCI-H522 lung): > 25 µM
- GI50 (HOP-92 NSCLC): 1.04 µM
- TGI (HOP-92 NSCLC): 13.7 µM
- GI50 (NCI-H226 lung): > 25 µM
- TGI (NCI-H226 lung): > 25 µM
- GI50 (RXF 393 renal): 3.1 µM
- TGI (RXF 393 renal): 6.58 µM
- GI50 (SK-MEL-28 melanoma): 6.07 µM
- TGI (SK-MEL-28 melanoma): 23.3 µM
- GI50 (TK-10 renal): 5.87 µM
- TGI (TK-10 renal): > 25 µM
- GI50 (T-47D breast): 12.2 µM
- TGI (T-47D breast): > 25 µM
- GI50 (DU-145 prostate): 9.69 µM
- TGI (DU-145 prostate): > 25 µM
- GI50 (K-562 leukemia): 4.75 µM
- TGI (K-562 leukemia): > 25 µM
- GI50 (HL-60(TB) leukemia): 5.8 µM
- TGI (HL-60(TB) leukemia): 18 µM
- GI50 (A549 NSCLC): 9.11 µM
- TGI (A549 NSCLC): > 25 µM
